# Results taken from patent publication US20230295571A1, “COMPOSITIONS AND METHODS FOR STEM CELL CHONDROGENESIS” (Washington University, priority 2020, published 2023).
# Entries after “also recorded” stand apart in the source; their conditions may differ.
# What was measured:
# Type in all cases: cell-based, human
# [1] = test system: hiPSC chondrogenic pellets; assay: Safranin-O histology of hiPSC chondrogenic pellets
# Description: Chondrogenic differentiation. Cells dissociated at the Cp stage were resuspended at 5×10^5 cells per mL in chondrogenic medium consisting of DMEM/F-12, 1% FBS, 1% ITS+, 55 μM β-mertcaptoethanol, 100 nM dexamethasone (DEX; Sigma-Aldrich, #D4902), 1% NEAA (Gibco, #11140050), 1% P/S, 10 ng ml^−1 human transforming growth factor-beta 3 (TGF-β3; R&D Systems, #243-B3-010), 50 μg ml^−1 L-ascorbic acid 2-phosphate (ascorbate; Sigma-Aldrich, #A8960), and 40 μg ml^−1 L-Proline (proline; Sigma-Aldrich, #P5607). Cells were then centrifuged for 5 min at 300×g to form a pellet. Chondrogenic pellets were cultured at 37° C. for up to the timepoints required for various experiments.
# WNT-C59 and ML329 treatment for WNT and MITF inhibition. For WNT-C59 treatment for WNT inhibition during chondrogenesis, pellets were treated with either 10 ng ml^−1 TGF-β3 (control group) or a combination of 10 ng ml^−1 TGF-β3 and 1 μM WNT-C59 in a chondrogenic medium from d0 to d42 as appropriate. For WNT-C59 and ML329 treatment (ML, Axon Medchem, HY-101464) for WNT and MITF inhibition during chondrogenesis, pellets were treated with either 10 ng ml^−1 TGF-β3 (control group), a combination of 10 ng ml^−1 TGF-β3 and 1 μM ML, a combination of 10 ng ml^−1 TGF-β3 and 1 μM WNT-C59, or a combination of 10 ng ml^−1 TGF-β3, 1 μM ML and 1 μM WNT-C59 in chondrogenic medium from d0 to d42 as appropriate. […]
# [2] = test system: CD146/CD166+ cells at the Cp stage; assay: FACS for progenitors at the Cp stage; conditions: with BMP4, 1 μM WNT-C59 or 100 ng/ml WNT3A
# Description: WNT ligands treatment during chondrogenesis. For WNT ligands treatment during chondrogenesis, pellets were treated with either 10 ng ml^−1 TGF-β3 (control group) or a combination of 10 ng ml^−1 TGF-β3 and 100 ng ml^−1 individual WNT ligand (WNT2B, WNT3A, WNT4, WNT5B, or WNT7B, all from R&D system) in chondrogenic medium from d0 to d42 as appropriate. For WNT ligands treatment during the Cp stage, cells were supplemented with either 20 ng ml^−1 BMP4 (R&D Systems, #314-BP-010) alone (control group), a combination of 20 ng ml^−1 BMP4 and 1 μM WNT-059, or a combination of 20 ng ml^−1 BMP4 and 100 ng ml^−1 WNT3A (R&D Systems, #5036-WN-010) in mesodermal differentiation medium from d7 to d12.
# FACS for progenitors. […] Data were analyzed using FlowJo software (version 10.5.3).
# [3] = test system: hiPSC chondrogenic pellets; assay: RNA-FISH of d28 pellets for WNT3A, WNT4 and COL2A1; conditions: d28 pellets vs TGF-β3-treated
# Description: RNA fluorescence in situ hybridization (RNA-FISH). […] Pellets were cryo-sectioned at 10 μm thick and fixed using 4% paraformaldehyde in PBS on ice for 10 min. Sample pre-treatment and RNA probe hybridization, amplification, and signal development were performed using the RNAscope Multiplex Fluorescent Reagent Kit v1 (Advanced Cell Diagnostics, #320850) following the manufacturer's instruction. Samples were imaged with multichannel confocal microscopy (Zeiss LSM 880). Tiled images with Z-stacks were taken at 20× magnification to capture the entire pellet. Maximum intensity projection, a process in which the brightest pixel (voxel) in each layer along Z direction is projected in the final 2D image, was performed using Zeiss Zen Blue (version 2.5).
smiles,measurement,setting,value
Cc1cc(-c2ccc(CC(=O)Nc3ccc(-c4cccnc4)cc3)cc2)ccn1 [WNT-C59],chondrogenesis when WNTs inhibited at the Cp stage,[1]; WNT-C59 at Cp stage,severely impaired
same,chondrocyte homogeneity (Saf-O staining),"[1]; treatment during pellet culture, vs standard TGF-β3",increased
same,percentage of CD146/CD166+ cells,[2],largely decreased
same,COL2A1 RNA-FISH labeling,[3],more homogenous distribution; also recorded: increased
same,WNT3A and WNT4 expression (RNA-FISH),[3],decreased
